Data taken from patent US11236046B2, “Substituted heterocyclic sulfonamide compounds useful as TRPA1 modulators” (Genentech, Inc., priority 2013, dated 2022).

Molecular target: human TRPA1 (Homo sapiens (Human), UniProt O75762)
Test: FLIPR Tetra calcium influx assay, block of cinnamaldehyde-induced calcium influx in CHO cells expressing TRPA1 (human)
Type: cell-based
Settings: 20 min compound incubation, 75 uM cinnamaldehyde (~EC80), Hill coefficient fixed to 1.5, read-out: hTRPA1 AUC IC50
Method in brief: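 CHO cells loaded with calcium dye, preincubated with compounds 20 min at room temperature in HBSS/20 mM HEPES pH 7.4 with 0.02% BSA. Channels activated by ~EC80 cinnamaldehyde (75 uM human, 45 uM rat); block of calcium influx read on FLIPR Tetra, IC50 fitted with fixed Hill coefficient.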

Sequence of human TRPA1 (O75762 whole entry): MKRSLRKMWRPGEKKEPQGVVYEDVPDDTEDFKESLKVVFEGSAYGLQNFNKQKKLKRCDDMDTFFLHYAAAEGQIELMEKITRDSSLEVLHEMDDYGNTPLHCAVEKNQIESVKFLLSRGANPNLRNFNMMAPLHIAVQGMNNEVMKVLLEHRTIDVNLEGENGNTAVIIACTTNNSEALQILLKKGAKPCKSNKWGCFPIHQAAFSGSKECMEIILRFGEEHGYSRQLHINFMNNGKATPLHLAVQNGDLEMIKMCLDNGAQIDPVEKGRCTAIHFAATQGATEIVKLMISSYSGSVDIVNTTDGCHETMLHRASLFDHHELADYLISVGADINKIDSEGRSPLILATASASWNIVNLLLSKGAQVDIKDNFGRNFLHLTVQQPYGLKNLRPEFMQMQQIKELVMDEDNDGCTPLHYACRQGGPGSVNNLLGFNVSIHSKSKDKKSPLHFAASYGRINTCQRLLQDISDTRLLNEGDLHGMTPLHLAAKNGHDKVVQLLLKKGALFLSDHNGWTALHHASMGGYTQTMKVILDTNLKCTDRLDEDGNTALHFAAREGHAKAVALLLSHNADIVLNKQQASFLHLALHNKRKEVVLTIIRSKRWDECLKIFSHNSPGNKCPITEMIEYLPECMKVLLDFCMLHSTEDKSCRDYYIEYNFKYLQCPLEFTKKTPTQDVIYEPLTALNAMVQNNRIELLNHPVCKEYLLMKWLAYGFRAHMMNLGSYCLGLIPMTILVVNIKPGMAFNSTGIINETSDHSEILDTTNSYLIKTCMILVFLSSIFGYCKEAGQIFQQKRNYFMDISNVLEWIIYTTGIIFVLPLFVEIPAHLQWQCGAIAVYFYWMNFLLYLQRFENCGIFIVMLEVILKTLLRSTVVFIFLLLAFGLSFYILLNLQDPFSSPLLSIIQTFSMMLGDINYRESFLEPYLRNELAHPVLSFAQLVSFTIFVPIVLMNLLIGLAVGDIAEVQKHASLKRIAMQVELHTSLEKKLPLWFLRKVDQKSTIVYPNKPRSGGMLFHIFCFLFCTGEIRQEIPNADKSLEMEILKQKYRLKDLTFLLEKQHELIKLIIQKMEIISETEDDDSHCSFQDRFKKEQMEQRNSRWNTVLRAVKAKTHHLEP

Row | SMILES | IC50
1 | O=C(NCc1ccnc(-c2cnc(C(F)(F)F)nc2)c1)[C@@H]1[C@H]2C[C@H]2CN1S(=O)(=O)c1ccc(F)cc1 [Example 172, (1R,4S,5S)-3-(4-fluorophenyl)sulfonyl-N-[[2-[2-(trifluoromethyl)pyrimidin-5-yl]-4-pyridyl]methyl]-3-azabicyclo[3.1.0]hexane-4-carboxamide] | 38 nM
2 | O=C(NCc1cc(F)cc(-c2csc(C(F)(F)F)n2)c1)[C@@H]1C[C@@H](F)CN1S(=O)(=O)c1ccc(F)cc1 [Example 173, (2S,4R)-4-fluoro-1-(4-fluorophenyl)sulfonyl-N-[[3-fluoro-5-[2-(trifluoromethyl)thiazol-4-yl]phenyl]methyl]pyrrolidine-2-carboxamide] | 111 nM
3 | O=C(NCc1cc(F)cc(-c2nc(C(F)(F)F)cs2)c1)[C@@H]1C[C@@H](F)CN1S(=O)(=O)c1ccc(F)cc1 [Example 175, (2S,4R)-4-fluoro-1-(4-fluorophenyl)sulfonyl-N-[[3-fluoro-5-[4-(trifluoromethyl)thiazol-2-yl]phenyl]methyl]pyrrolidine-2-carboxamide] | 86 nM
4 | N#Cc1ccc(-c2cnc(C(F)(F)F)nc2)cc1CNC(=O)[C@@H]1[C@H]2C[C@H]2CN1S(=O)(=O)c1ccc(F)cc1 [Example 176, (1S,2S,5R)—N-(2-cyano-5-(2-(trifluoromethyl)pyrimidin-5-yl)benzyl)-3-((4-fluorophenyl)sulfonyl)-3-azabicyclo[3.1.0]hexane-2-carboxamide] | 8 nM
5 | O=C(NCc1cc(-c2ccc(C(F)(F)F)cc2)ccc1F)[C@@H]1C[C@@H](F)CN1S(=O)(=O)c1ccc(F)cc1 [Example 177, (2S,4R)-4-fluoro-N-((4-fluoro-4′-(trifluoromethyl)-[1,1′-biphenyl]-3-yl)methyl)-1-((4-fluorophenyl)sulfonyl)pyrrolidine-2-carboxamide] | 5 nM
6 | Nc1nc(C(F)(F)F)ccc1-c1cc(CNC(=O)[C@@H]2C[C@@H](F)CN2S(=O)(=O)c2ccc(F)cc2)ccn1 [Example 178, (2S,4R)—N-[[2-[2-amino-6-(trifluoromethyl)-3-pyridyl]-4-pyridyl]methyl]-4-fluoro-1-(4-fluorophenyl)sulfonyl-pyrrolidine-2-carboxamide] | 175 nM
7 | CNc1nc(C(F)(F)F)ccc1-c1cc(CNC(=O)[C@@H]2C[C@@H](F)CN2S(=O)(=O)c2ccc(F)cc2)ccn1 [Example 179, (2S,4R)-4-fluoro-1-(4-fluorophenyl)sulfonyl-N-[[2-[2-(methylamino)-6-(trifluoromethyl)-3-pyridyl]-4-pyridyl]methyl]pyrrolidine-2-carboxamide] | 62 nM
8 | O=C(NCc1cc(-c2cnc(C(F)(F)F)nc2)ncc1F)[C@@H]1C[C@@H](F)CN1S(=O)(=O)c1ccc(F)cc1 [Example 180, (2S,4R)-4-fluoro-1-(4-fluorophenyl)sulfonyl-N-[[5-fluoro-2-[2-(trifluoromethyl)pyrimidin-5-yl]-4-pyridyl]methyl]pyrrolidine-2-carboxamide] | 26 nM
9 | O=C(NCc1cc(F)cc(-c2cnc(C(F)(F)F)nc2)c1)[C@]12C[C@H]1CCN2S(=O)(=O)c1ccc(F)cc1 [Example 181, (1R,5S)-4-(4-fluorophenyl)sulfonyl-N-[[3-fluoro-5-[2-(trifluoromethyl)pyrimidin-5-yl]phenyl]methyl]-4-azabicyclo[3.1.0]hexane-5-carboxamide] | 10 nM
10 | O=C(NCc1cc(-c2cnc(C(F)(F)F)nc2)ccc1F)[C@]12C[C@H]1CCN2S(=O)(=O)c1ccc(F)cc1 [Example 182, (1R,5S)-4-(4-fluorophenyl)sulfonyl-N-[[2-fluoro-5-[2-(trifluoromethyl)pyrimidin-5-yl]phenyl]methyl]-4-azabicyclo[3.1.0]hexane-5-carboxamide] | 21 nM
11 | O=C(NCc1cc(-c2cnc(C(F)(F)F)nc2)ccc1F)[C@@H]1[C@H]2C[C@H]2CN1S(=O)(=O)c1ccc(F)cc1 [Example 183, (1S,2S,5R)—N-(2-fluoro-5-(2-(trifluoromethyl)pyrimidin-5-yl)benzyl)-3-((4-fluorophenyl)sulfonyl)-3-azabicyclo[3.1.0]hexane-2-carboxamide] | 3 nM
12 | O=C(NCc1cc(-c2cnc(C(F)(F)F)nc2)ncc1Cl)[C@@H]1C[C@@H](F)CN1S(=O)(=O)c1ccc(F)cc1 [Example 184, (2S,4R)—N-([5-chloro-2-[2-(trifluoromethyl)pyrimidin-5-yl]pyridin-4-yl]methyl)-4-fluoro-1-[(4-fluorobenzene)sulfonyl]pyrrolidine-2-carboxamide] | 10 nM
13 | O=C(NCc1cc(-c2cnc(C(F)(F)F)nc2)ncc1F)C1C2CC(CC2F)N1S(=O)(=O)c1ccc(F)cc1 (stereo not drawn) [Example 185, 5-fluoro-N-((5-fluoro-2-(2-(trifluoromethyl)pyrimidin-5-yl)pyridin-4-yl)methyl)-2-(4-fluorophenylsulfonyl)-2-aza-bicyclo[2.2.1]heptane-3-carboxamide] | 155 nM
14 | C[C@H]1CC[C@@H](C(=O)NCc2ccnc(-c3cnc(C(F)(F)F)nc3)c2)N1S(=O)(=O)c1ccc(F)cc1 [Example 186, (2S,5S)-1-(4-fluorophenylsulfonyl)-5-methyl-N-((2-(2-(trifluoromethyl)pyrimidin-5-yl)pyridin-4-yl)methyl)pyrrolidine-2-carboxamide] | 4 nM
15 | C[C@@]1(F)C[C@@H](C(=O)NCc2cc(-c3cnc(C(F)(F)F)nc3)ccc2F)N(S(=O)(=O)c2ccc(F)cc2)C1 [Example 187, (2S,4R)-4-fluoro-N-(2-fluoro-5-(2-(trifluoromethyl)pyrimidin-5-yl)benzyl)-1-((4-fluorophenyl)sulfonyl)-4-methylpyrrolidine-2-carboxamide] | 6 nM
16 | COc1cc(CNC(=O)[C@@H]2C[C@@H](F)CN2S(=O)(=O)c2ccc(F)cc2)cc(-c2cnc(C(F)(F)F)nc2)n1 [Example 188, (2S,4R)-4-fluoro-1-(4-fluorophenyl)sulfonyl-N-[[2-methoxy-6-[2-(trifluoromethyl)pyrimidin-5-yl]-4-pyridyl]methyl]pyrrolidine-2-carboxamide] | 8 nM
17 | N#Cc1cnc(-c2cnc(C(F)(F)F)nc2)cc1CNC(=O)[C@@H]1C[C@@H](F)CN1S(=O)(=O)c1ccc(F)cc1 [Example 189, (2S,4R)—N-([5-cyano-2-[2-(trifluoromethyl)pyrimidin-5-yl]pyridin-4-yl]methyl)-4-fluoro-1-[(4-fluorobenzene)sulfonyl]pyrrolidine-2-carboxamide] | 55 nM
18 | COCCOc1nc(C(F)(F)F)ccc1-c1cc(F)cc(CNC(=O)[C@@H]2C[C@@H](F)CN2S(=O)(=O)c2ccc(F)cc2)c1 [Example 190, (2S,4R)-4-fluoro-N-([3-fluoro-5-[2-(2-methoxyethoxy)-6-(trifluoromethyl)pyridin-3-yl]phenyl]methyl)-1-[(4-fluorobenzene)sulfonyl]pyrrolidine-2-carboxamide] | 52 nM
19 | Cc1cc(-c2cnc(C(F)(F)F)nc2)cc(CNC(=O)[C@@H]2[C@@H](F)CCN2S(=O)(=O)c2ccc(F)cc2)n1 [Example 191, (2R,3S)-3-fluoro-1-[(4-fluorobenzene)sulfonyl]-N-([6-methyl-4-[2-(trifluoromethyl)pyrimidin-5-yl]pyridin-2-yl]methyl)pyrrolidine-2-carboxamide] | 27 nM
20 | O=C(NCc1cc(-c2cnc(C(F)(F)F)nc2)c(Cl)cn1)[C@@H]1C[C@@H](F)CN1S(=O)(=O)c1ccc(F)cc1 [Example 192, (2S,4R)—N-([5-chloro-4-[2-(trifluoromethyl)pyrimidin-5-yl]pyridin-2-yl]methyl)-4-fluoro-1-[(4-fluorobenzene)sulfonyl]pyrrolidine-2-carboxamide] | 42 nM
21 | C[C@H]1[C@H](F)C[C@@H](C(=O)NCc2ccnc(-c3cnc(C(F)(F)F)nc3)c2)N1S(=O)(=O)c1ccc(F)cc1 [Example 193, (2S,4R,5S)-4-fluoro-1-[(4-fluorobenzene)sulfonyl]-5-methyl-N-([2-[2-(trifluoromethyl)pyrimidin-5-yl]pyridin-4-yl]methyl)pyrrolidine-2-carboxamide] | 15 nM
22 | CC1(C)CC[C@@H](C(=O)NCc2cc(-c3ccc(C(F)(F)F)nc3)ncn2)N1S(=O)(=O)c1ccc(F)cc1 [Example 194, (2S)-1-(4-fluorophenyl)sulfonyl-5,5-dimethyl-N-[[6-[6-(trifluoromethyl)-3-pyridyl]pyrimidin-4-yl]methyl]pyrrolidine-2-carboxamide] | 381 nM
23 | O=C(NCc1cncc(-c2cnc(C(F)(F)F)nc2)c1)[C@@H]1C[C@@H](F)CN1S(=O)(=O)c1ccc(F)cc1 [Example 195, (2S,4R)-4-fluoro-1-(4-fluorophenyl)sulfonyl-N-[[5-[2-(trifluoromethyl)pyrimidin-5-yl]-3-pyridyl]methyl]pyrrolidine-2-carboxamide] | 795 nM
24 | COc1cnc(-c2cnc(C(F)(F)F)nc2)cc1CNC(=O)[C@@H]1C[C@@H](F)CN1S(=O)(=O)c1ccc(F)cc1 [Example 196, (2S,4R)-4-fluoro-1-(4-fluorophenylsulfonyl)-N-((5-methoxy-2-(2-(trifluoromethyl)pyrimidin-5-yl)pyridin-4-yl)methyl)pyrrolidine-2-carboxamide] | 134 nM
25 | O=C(NCc1cn(-c2ccc(C(F)(F)F)cc2)nc1Cl)[C@@H]1CCN1S(=O)(=O)c1ccc(F)cc1 [Example 197, (2S)—N-([3-chloro-1-[4-(trifluoromethyl)phenyl]-1H-pyrazol-4-yl]methyl)-1-[(4-fluorobenzene)sulfonyl]azetidine-2-carboxamide] | 15 nM
26 | C[C@@]1(C(=O)NCc2cc(-c3ccc(C(F)(F)F)nc3)ncn2)CCN1S(=O)(=O)c1ccc(F)cc1 [Example 198, (S)-1-(4-fluorophenylsulfonyl)-2-methyl-N-((6-(6-(trifluoromethyl)pyridin-3-yl)pyrimidin-4-yl)methyl)azetidine-2-carboxamide] | 59 nM
27 | O=C(NCc1cn(-c2ccc(C(F)(F)F)nc2)nc1Cl)[C@@H]1CCN1S(=O)(=O)c1ccc(F)cc1 [Example 199, (2S)—N-([3-chloro-1-[6-(trifluoromethyl)pyridin-3-yl]-1H-pyrazol-4-yl]methyl)-1-[(4-fluorobenzene)sulfonyl]azetidine-2-carboxamide] | 138 nM
